In article PMC12022153, “Sustainable approach for synthesis of new coumarin-linked Schiff bases in DABCO-based ionic liquid and their identification as aldose reductase inhibitors” (Scientific Reports, 2025):
Where two headings read alike, the source gives them in different places.

Tests used:
[1] = target: T1, aldehyde reductase (ALR1) (Bos taurus, UniProt Q3ZCJ2); test: Enzyme inhibition assay for ALR1 (aldehyde reductase), NADPH absorbance at 340 nm; format: biochemical, bovine; conditions: for inhibition at 100 µM: less than 50% so no IC50; for IC50: substrate sodium-D-glucuronate, NADPH, standard valproic acid, value ± SEM
T1 construct: ALR2 was extracted from the eyes while ALR1 was obtained from the kidneys; from tissue; host or cells: bovine kidneys
T1 sequence (Q3ZCJ2 whole entry): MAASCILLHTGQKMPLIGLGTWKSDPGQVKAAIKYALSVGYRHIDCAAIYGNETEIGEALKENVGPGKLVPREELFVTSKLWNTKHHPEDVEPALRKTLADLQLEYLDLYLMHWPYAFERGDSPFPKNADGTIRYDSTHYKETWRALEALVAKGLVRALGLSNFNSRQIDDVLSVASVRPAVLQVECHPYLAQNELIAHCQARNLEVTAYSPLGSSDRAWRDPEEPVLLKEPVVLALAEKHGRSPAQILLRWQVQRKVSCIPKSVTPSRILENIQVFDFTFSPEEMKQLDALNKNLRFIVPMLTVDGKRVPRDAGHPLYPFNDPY
Method: (§1) The ALR2 activity was estimated through measuring decrease in absorbance of NADPH in the assay at 340 nm on a spectrophotometer (FLUOstar Omega BMG LABTECH, Germany). The enzyme inhibition assay was carried out via following methods of ALR2 inhibition of our recent study. During the assay, total assay volume was kept 100 consisting of 20 µL of 100 mM sodium phosphate buffer at pH 6.2, 30 µL of the enzyme ([…]; protein concentration 12 µg mL^−1), 10 µL of test compound, and 20 µL of 1 mM substrate DL-glyceraldehyde. First, the reaction mixture was incubated without co-factor (NADPH) then reaction was initiated by addition of 20 µL of NADPH solution of 0.1 mM and monitored for five minutes. The change of absorbance was noted as pre-read and after-read, the percent inhibition was calculated for the tested compounds and standard inhibitor. For ALR1 (aldehyde reductase), sodium-D-glucuronate was employed as a substrate and valproic acid as a standard inhibitor. […] Otherwise, identical protocols were adopted for the ALR1 and ALR2 assays. First, tests compounds were solubilized in dimethyl sulfoxide (DMSO) (100%) and dilutions were prepared with deionized water to keep the concentration of DMSO at 0.1% during the assay. Initially, test compounds were tested at 100 µM. […] The logarithms of the inhibitor concentration were plotted versus the remaining activity of the enzyme, and IC50 values were calculated using non-linear regression analysis in GraphPad Prism Version 8.
(§2) Based on these reports, a library of coumarin-linked Schiff base analogues were designed. […] Compounds were also checked for selectivity via testing their inhibitory potency against ALR1 enzyme. Both aldose reductase enzymes (ALR2 and ALR1) were isolated from bovine; ALR2 was extracted from the eyes while ALR1 was obtained from the kidneys.

aldose reductase (ALR2) [2] = target: T2, aldose reductase (ALR2) (Bos taurus, UniProt P16116); test: Enzyme inhibition assay for ALR2 (aldose reductase), NADPH absorbance at 340 nm; format: biochemical, bovine; conditions: for selectivity of inhibition, ALR2 versus ALR1: comparison of inhibitory activity against both enzymes; for IC50: read-out: IC50 ± SEM ALR2 Inhibition; for inhibition at 100 µM: less than 50% so no IC50
T2 construct: ALR2 was extracted from the eyes while ALR1 was obtained from the kidneys; from tissue; host or cells: bovine eyes
Method: as §1, §2

aldose reductase (ALR2) [3] = conditions: cited from earlier work
[4] = test compounds tested at 100 µM, read-out: % Inhibition ALR1
[5] = test compounds tested at 100 µM, read-out: % Inhibition ALR2

inhibition at 100 µM [1, 4] [%] | selectivity of inhibition, ALR2 versus ALR1 (aldose reductase (ALR2) [2]) | IC50 (aldose reductase (ALR2) [2]) [µM] | IC50 [1] [µM] | SMILES | also measured
37.9 | selective inhibition against ALR2 enzyme | 3.66 ± 0.068 | – | Cc1ccccc1NN=Cc1ccccc1OCc1cc2ccccc2oc1=O [Compound 12, 3-((2′-((2-(o-Tolyl)hydrazineylidene)methyl)phenoxy)methyl)-2H-chromen-2-one] | –
– | – | 3.61 ± 0.016 | 14.49 ± 0.052 | O=c1oc2ccccc2cc1COc1ccccc1C=NNc1ccccc1Cl [Compound 7, 3-((2′-((2-(2′′-Chlorophenyl)hydrazineylidene)methyl)phenoxy)methyl)-2H-chromen-2-one] | –
< 50 | – | – | – | O=c1oc2ccccc2cc1COc1ccccc1C=NNc1ccccc1Br [Compound 10, 3-((2′-((2-(2′′-Bromophenyl)hydrazineylidene)methyl)phenoxy)methyl)-2H-chromen-2-one] | inhibition at 100 µM (aldose reductase (ALR2) [2]; [5]): < 50%
34.2 | selective inhibition against ALR2 enzyme | 4.64 ± 0.045 | – | Cc1ccc(NN=Cc2ccccc2OCc2cc3ccccc3oc2=O)cc1 [Compound 13, 3-((2′-((2-(p-Tolyl)hydrazineylidene)methyl)phenoxy)methyl)-2H-chromen-2-one] | –
– | – | 2.94 ± 0.083 | 5.96 ± 0.035 | O=c1oc2ccccc2cc1COc1ccccc1C=NNc1cccc(Cl)c1 [Compound 8, 3-((2′-((2-(3′′-Chlorophenyl)hydrazineylidene)methyl)phenoxy)methyl)-2H-chromen-2-one] | –
45.2 | selective inhibition against ALR2 enzyme | 2.2 ± 0.024 | – | O=c1oc2ccccc2cc1COc1ccccc1C=NNc1ccc(F)cc1 [Compound 6, 3-((2′-((2-(4′′-Fluorophenyl)hydrazineylidene)methyl)phenoxy)methyl)-2H-chromen-2-one] | –
35.7 | – | – | – | O=c1oc2ccccc2cc1COc1ccccc1C=NNc1cccc([N+](=O)[O-])c1 [Compound 18, 3-((2′-((2-(3′′-Nitrophenyl)hydrazineylidene)methyl)phenoxy)methyl)-2H-chromen-2-one] | inhibition at 100 µM (aldose reductase (ALR2) [2]; [5]): 42.9%
– | – | – | – | C/C(=N\NC(=S)Nc1ccccc1F)c1cc2ccccc2oc1=O [XV] | selectivity relative to ALR1 enzyme (aldose reductase (ALR2) [3]): high selectivity; IC50 (aldose reductase (ALR2) [3]; coumarin-tethered thiosemicarbazones, read-out: IC50 ALR2 / aldose reductase inhibition): 2.07 µM
– | non-selective inhibitions | 4.07 ± 0.083 | 11.23 ± 0.065 | O=c1oc2ccccc2cc1COc1ccccc1C=NNc1ccc(Cl)c(Cl)c1 [Compound 21, 3-((2′-((2-(3′′,4′′-Dichlorophenyl)hydrazineylidene)methyl)phenoxy)methyl)-2H-chromen-2-one] | –
– | non-selective inhibitions | 6.52 ± 0.077 | 12.9 ± 0.013 | CCc1ccccc1NN=Cc1ccccc1OCc1cc2ccccc2oc1=O [Compound 14, 3-((2′-((2-(2′′-Ethylphenyl)hydrazineylidene)methyl)phenoxy)methyl)-2H-chromen-2-one] | –
33.2 | – | – | – | O=c1oc2ccccc2cc1COc1ccccc1C=NNc1ccccc1[N+](=O)[O-] [Compound 17, 3-((2′-((2-(2′′-Nitrophenyl)hydrazineylidene)methyl)phenoxy)methyl)-2H-chromen-2-one] | inhibition at 100 µM (aldose reductase (ALR2) [2]; [5]): 45.6%
– | – | – | 57.4 ± 0.89 | CCCC(CCC)C(=O)O [Valproic acid, reference compound] | –
< 50 | – | – | – | O=c1oc2ccccc2cc1COc1ccccc1C=NNc1ccc(Br)cc1 [Compound 11, 3-((2′-((2-(4′′-Bromophenyl)hydrazineylidene)methyl)phenoxy)methyl)-2H-chromen-2-one] | inhibition at 100 µM (aldose reductase (ALR2) [2]; [5]): < 50%
– | non-selective inhibitions | 7.63 ± 0.061 | 3.29 ± 0.064 | Cc1ccc(NN=Cc2ccccc2OCc2cc3ccccc3oc2=O)c(C)c1 [Compound 20, 3-((2′-((2-(2′′,4′′-Dimethylphenyl)hydrazineylidene)methyl)phenoxy)methyl)-2H-chromen-2-one] | –
– | – | 2.84 ± 0.032 | 4.07 ± 0.078 | O=c1oc2ccccc2cc1COc1ccccc1C=NNc1ccc(Cl)cc1 [Compound 9, 3-((2′-((2-(4′′-Chlorophenyl)hydrazineylidene)methyl)phenoxy)methyl)-2H-chromen-2-one] | –
– | – | – | – | O=c1oc2ccccc2cc1COc1ccccc1C=NNc1ccc([N+](=O)[O-])cc1[N+](=O)[O-] [Compound 22, 3-((2′-((2-(2′′,4′′-Dinitrophenyl)hydrazineylidene)methyl)phenoxy)methyl)-2H-chromen-2-one] | inhibition at 100 µM ([1]; read-out: % Inhibition ALR1, test compounds tested at 100 µM): < 50%; inhibition at 100 µM (aldose reductase (ALR2) [2]; read-out: % Inhibition ALR2, test compounds tested at 100 µM): < 50%
42.9 | – | – | – | N#Cc1ccc(NN=Cc2ccccc2OCc2cc3ccccc3oc2=O)cc1 [Compound 16, 4′′-(2-(2′-((2-Oxo-2H-chromen-3-yl)methoxy)benzylidene)hydrazineyl)benzonitrile] | inhibition at 100 µM (aldose reductase (ALR2) [2]; [5]): 39.2%
37 | selective inhibition against ALR2 enzyme | 1.61 ± 0.049 | – | Cc1cccc(NN=Cc2ccccc2OCc2cc3ccccc3oc2=O)c1C [Compound 19, 3-((2′-((2-(2′′,3′′-Dimethylphenyl)hydrazineylidene)methyl)phenoxy)methyl)-2H-chromen-2-one] | –
45.1 | selective inhibition against ALR2 enzyme | 11.2 ± 0.029 | – | O=c1oc2ccccc2cc1COc1ccccc1C=NNc1ccccc1 [Compound 5, 3-((2′-((2-Phenylhydrazineylidene)methyl)phenoxy)methyl)-2H-chromen-2-one] | –
– | non-selective inhibitions | 10.19 ± 0.034 | 4.21 ± 0.023 | COc1ccc(NN=Cc2ccccc2OCc2cc3ccccc3oc2=O)cc1 [Compound 15, 3-((2′-((2-(4′′-Methoxyphenyl)hydrazineylidene)methyl)phenoxy)methyl)-2H-chromen-2-one] | –
